Measured values published in US20110230421A1, “FUSION PROTEINS OF APOPTIN-PROTEIN TR[…] OF CARBOXYL-TERMINUS OF EC-SOD” (priority 2008, published 2011).
Read-outs that look alike come from different tables or passages of the source.

Legend:
Lewis lung carcinoma = type: in vivo, mouse; conditions: i.p. daily for 7-8 days, cyclophosphamide 20, Poly Arg-Apoptin 40, Apoptin-EC-SOD-PTD 10 mg/kgBW/day; for ratio of tumor inhibition: versus blank group mean tumor weight
Protocol: Four groups including a blank control, a positive control and a recombinant Apoptin-EC-SOD-PTD test group and a recombinant Poly Arg-Apoptin group were set for the experiment, and 8 animals were tested for each group. After inoculation of Lewis lung carcinoma cells, the blank control group was injected with saline water. Whereas, the positive control group was injected with cyclophosphamide solution (20 mg/kgBW/day). The two test groups were injected with the recombinant Apoptin-EC-SOD-PTD (10 mg/kgBW/day) which was purified, dialysed and sterile filtrated and recombinant Poly Arg-Apoptin (40 mg/kgBW/day), respectively.
1. Inoculation of carcinoma cell line: Six weeks old C57BU6 male mice with a weight of about 20 g were inoculated by armpit with 0.2 ml of Lewis lung carcinoma single cell suspension. After feeding for 3-4 days, tumor growth in the armpits of the mice was observed. Drug administration test would be initiated when the tumor grew to a size of several millimeters.
2. Administration: Drugs were administered by intraperitoneal injection, and the administrations were continued for 7-8 days. The mouse was weighed before daily administration.
3. Detecting ratio of tumor inhibition: After the drug administrations were stop for 2 days, the mice were sacrificed by breaking their necks. The tumor tissue was stripped from the body, weighted and calculated the ratio of tumor inhibition.
Ratio of tumor inhibition=(mean tumor weight of the blank group—mean tumor weight of the test group)/mean tumor weight of the blank group×100%.

HeLa cells = assay: MTT survival of HeLa cells cultured in vitro, 24 h; type: cell-based; conditions: 100 μg/ml
Protocol: 1. The HeLa cells were cultured on the 96-well cell culture plate at 37° C. until the cell density reached to about 60%. Imidazole was removed from the recombinant Apoptin-EC-SOD-PTD sample isolated and purified after expressing by repeated dialysis. After sterile filtration, the protein was diluted by adding different volume of DMEM cell culture media. From the highest concentration of protein, the concentration was reduced by half dilution gradually until zero. And the solution without protein was used as the negative control; for each protein concentration group were selected 3-4 wells for parallel control. Meanwhile, the recombinant Apoptin protein isolated and purified from the prokaryotic expression system using the similar method was used as the control and conducted the same experimental operation. The two sets of samples were cultured for 24 h, drew culture media out and added the DMEM (100 μl) containing the 5 μg/ml of MTT, and then incubated for 4 hours at 37° C., drew the culture media out and added DMSO (100 μl) to dissolve the purple crystals, incubated for 10 min at 37° C. and measured its absorbance at 490 nm by a microplate reader. […]
2. Survival ratios of HeLa cells treated with different sample concentration were detected by MTT method.

Molecule | weight of the tumor tissue X ± SD (Lewis lung carcinoma; tumor stripped 2 days after last dose) | ratio of tumor inhibition (Lewis lung carcinoma) | ratio of tumor inhibition (Lewis lung carcinoma; listed as positive control) | effect on the cell growth of HeLa (HeLa cells)
O=P1(N(CCCl)CCCl)NCCCO1 (stereo not shown) [cyclophosphamide] | 1.21 ± 0.119 | 47.4% | 47.4% | 
recombinant Apoptin: recombinant Apoptin protein isolated and purified from the prokaryotic expression system, used as the control (protein, Chicken anemia virus, recombinant Apoptin protein isolated and purified from the prokaryotic expression system, used as the control) MNALQEDTPPGPSTVFRPPTSSRPLETPHCREIRIGIAGITITLSLCGCANARAPTLRSATADNSESTGFKNVPDLRTDQPKPPSKKRSCDPSEYRVSELKESLITTTPSRPRTAKRRIRL |  |  |  | not obvious
